Source: US5980913A, “Peptides having immunomodulatory activity” (Biochem Pharma, Inc., priority 1994, dated 1999)
Where a SMILES comes first, the peptide text is derived from it. [ ]: non-standard residue; d: D form.

What was measured:
Toxicity in vivo = assay: Toxicity in vivo
Source text: peptide #1 (SEQ. ID NO:1) appears to be non-toxic.

T cells = assay: Activation of T cells by mitogenic proliferation (ConA, PHA); type: cell-based, C57BL/6 mice; conditions: concentration not given; 0 not defined
Source text: c) Activation of T or B cells by Mitogenic Proliferation
A mitogenic lectin (mitogen) is a glycoprotein which binds and cross-links specific cells surface carbohydrate determinants, and will polyclonally stimulate lymphoid cells. Lymphocyte activation by either antigens or mitogens results in intracellular changes and the subsequent development into a lymphoblast. Mitogenic stimulation of lymphocytes in vitro is believed to mimic the series of events which occur in vivo following their stimulation by specific antigens. PHA and ConA; PWM and LPS mitogens can be used as a measurement of T cell and B cell activity, respectively. Briefly, the spleen mononuclear leukocytes from C57BL/6 mice are incubated in the presence or absence of mitogens with or without candidate drugs. After 72 hours or 5 days, ^3 H-thymidine incorporation is recorded as an indication of cell proliferation.
Lymphocytes were isolated from mice spleen or human blood in accordance to methods well known in the art. 100 μl of cell suspension of 2×10^6 cells/ml was added per well (2x10^5 cells/well) and incubated in the presence of lectin at the following concentrations:
PHA=0.01% to 0.001% final concentration
Cells were incubated for 3 days with PHA or ConA, or 5 days with PWM or LPS. 1 μCi of tritiated thymidine was added to each well for the last 6 hours (or 0.5 μCi for 18 hrs). The cells were harvested in a cell Harvester (Tortech®) and counted in a Beta counter.

[1] = system: blood cell subsets (cell surface antigens); assay: In vivo/ex vivo immunophenotyping in the blood, mice treated 4 consecutive days, blood taken on day 5; design: species or system C57BL/6 mice
Description: C57BL.backslash.6 mice are treated with 0, 50, 100, 200, and 300 mg/kg of drug (in saline) for 4 consecutive days. Blood is taken by cardiac puncture on day 5, and the lymphocytes are isolated from spleen in the following manner:
1. Immunophenotyping (blood and spleen)
Cell immunophenotyping is performed on blood and spleen. The following cell surface antigens are analyzed:
CD4 (T helper/inducer, binds class II-restricted T cells);
CD8 (cytotoxic T cells, CTL adhesion);
MAC-1 (monocyte/macrophage);
NK (natural killer cells);
CD45 (all leukocytes, protein tyrosine phosphatase).

## NCCCC[C@@H](N)C(=O)N[C@@H](CC(N)=O)C(=O)N1CCC[C@H]1C(=O)N[C@@H](Cc1ccc(O)cc1)C(=O)O [PEPTIDE #5, H-(D-Lys)-Asn-Pro-Tyr-OH] (H-[dK]NPY-OH)
Toxicity in vivo; in vivo
  gross pathological observations (in words): no sign of irritation
Toxicity in vivo; up to 200 mg/kg
  toxic effect (in words): No toxic effect
T cells
  Activation of T Cells, ConA: 0
  Activation of T Cells, PHA: 0
[1]
  change of relative percentage of T cells (TCR, CD4+ and CD8+ cell surface antigen) (in words): reduced in a significant manner
[1]; 50 mg/kg, first assay
  CD4+ CD8+ cell subset, relative percentage, MEAN: 2.03
  CD4+ CD8- cell subset, relative percentage, MEAN: 18.15
  CD4+ CD11b+ cell subset, relative percentage, MEAN: 1.18
  CD4+ CD11b- cell subset, relative percentage, MEAN: 22.55
  CD4- CD8+ cell subset, relative percentage, MEAN: 5.15
  CD4- CD8- cell subset, relative percentage, MEAN: 74.68
  CD4- CD11b+ cell subset, relative percentage, MEAN: 12.08
  CD4- CD11b- cell subset, relative percentage, MEAN: 64.15
  CD45+ CD4+ cell subset, relative percentage, MEAN: 17.00
  CD45+ CD4- cell subset, relative percentage, MEAN: 57.68
  CD45+ CD8+ cell subset, relative percentage, MEAN: 6.53
  CD45+ CD8- cell subset, relative percentage, MEAN: 62.48
  CD45- CD4+ cell subset, relative percentage, MEAN: 3.15
  CD45- CD4- cell subset, relative percentage, MEAN: 22.15
  CD45- CD8- cell subset, relative percentage, MEAN: 30.35
  CD45- CDE8+ cell subset, relative percentage, MEAN: 0.68
  Ly5(B) cell subset, relative percentage, MEAN: 57.88
  NK+ CD3+ cell subset, relative percentage, MEAN: 2.13
  NK+ CD3- cell subset, relative percentage, MEAN: 5.70
  NK- CD3+ cell subset, relative percentage, MEAN: 33.30
  NK- CD3- cell subset, relative percentage, MEAN: 58.93
  TCR(T) cell subset, relative percentage, MEAN: 31.53
[1]; 50 mg/kg, second assay
  CD4+ CD8+ cell subset, relative percentage, MEAN: 0.43
  CD4+ CD8- cell subset, relative percentage, MEAN: 20.65
  CD4+ CD11b+ cell subset, relative percentage, MEAN: 0.13
  CD4+ CD11b- cell subset, relative percentage, MEAN: 15.38
  CD4- CD8+ cell subset, relative percentage, MEAN: 7.70
  CD4- CD8- cell subset, relative percentage, MEAN: 71.20
  CD4- CD11b+ cell subset, relative percentage, MEAN: 6.73
  CD4- CD11b- cell subset, relative percentage, MEAN: 77.78
  CD45+ CD4+ cell subset, relative percentage, MEAN: 18.48
  CD45+ CD4- cell subset, relative percentage, MEAN: 68.23
  CD45+ CD8+ cell subset, relative percentage, MEAN: 8.10
  CD45+ CD8- cell subset, relative percentage, MEAN: 79.70
  CD45- CD4+ cell subset, relative percentage, MEAN: 2.25
  CD45- CD4- cell subset, relative percentage, MEAN: 11.05
  CD45- CD8+ cell subset, relative percentage, MEAN: 0.03
  CD45- CD8- cell subset, relative percentage, MEAN: 12.15
  Ly5(B) cell subset, relative percentage, MEAN: 58.6
  NK+ CD3+ cell subset, relative percentage, MEAN: 3.00
  NK+ CD3- cell subset, relative percentage, MEAN: 7.88
  NK- CD3+ cell subset, relative percentage, MEAN: 31.05
  NK- CD3- cell subset, relative percentage, MEAN: 58.10
  TCR(T) cell subset, relative percentage, MEAN: 35.73
[1]; 100 mg/kg, first assay
  CD4+ CD8+ cell subset, relative percentage, MEAN: 2.10
  CD4+ CD8- cell subset, relative percentage, MEAN: 17.90
  CD4+ CD11b+ cell subset, relative percentage, MEAN: 1.10
  CD4+ CD11b- cell subset, relative percentage, MEAN: 20.30
  CD4- CD8+ cell subset, relative percentage, MEAN: 6.03
  CD4- CD8- cell subset, relative percentage, MEAN: 73.95
  CD4- CD11b+ cell subset, relative percentage, MEAN: 11.03
  CD4- CD11b- cell subset, relative percentage, MEAN: 67.65
  CD45+ CD4+ cell subset, relative percentage, MEAN: 16.78
  CD45+ CD4- cell subset, relative percentage, MEAN: 58.75
  CD45+ CD8+ cell subset, relative percentage, MEAN: 7.10
  CD45+ CD8- cell subset, relative percentage, MEAN: 63.45
  CD45- CD4+ cell subset, relative percentage, MEAN: 3.25
  CD45- CD4- cell subset, relative percentage, MEAN: 21.23
  CD45- CD8- cell subset, relative percentage, MEAN: 28.38
  CD45- CDE8+ cell subset, relative percentage, MEAN: 1.03
  Ly5(B) cell subset, relative percentage, MEAN: 58.73
  NK+ CD3+ cell subset, relative percentage, MEAN: 2.43
  NK+ CD3- cell subset, relative percentage, MEAN: 6.00
  NK- CD3+ cell subset, relative percentage, MEAN: 33.58
  NK- CD3- cell subset, relative percentage, MEAN: 57.95
